# Test results as given in ChEMBL document CHEMBL5465560, “Selectivity Literature for EUbOPEN Chemogenomic Library” (2024).
# Tests used:
# [1] = molecular target: Mitogen-activated protein kinase 10 (Homo sapiens, UniProt P53779); test: Selectivity interaction (KinomeScan (DiscoverX)) EUB0001049a MAPK10; conditions: at 1 µM
# [2] = molecular target: Fibroblast growth factor receptor 2 (Homo sapiens) (UniProt P21802); test: Selectivity interaction (KinomeScan (DiscoverX)) EUB0000666a FGFR2; conditions: at 10 µM
# Fibroblast growth factor receptor 2 (Homo sapiens), sequence (P21802 22-821 limits assumed): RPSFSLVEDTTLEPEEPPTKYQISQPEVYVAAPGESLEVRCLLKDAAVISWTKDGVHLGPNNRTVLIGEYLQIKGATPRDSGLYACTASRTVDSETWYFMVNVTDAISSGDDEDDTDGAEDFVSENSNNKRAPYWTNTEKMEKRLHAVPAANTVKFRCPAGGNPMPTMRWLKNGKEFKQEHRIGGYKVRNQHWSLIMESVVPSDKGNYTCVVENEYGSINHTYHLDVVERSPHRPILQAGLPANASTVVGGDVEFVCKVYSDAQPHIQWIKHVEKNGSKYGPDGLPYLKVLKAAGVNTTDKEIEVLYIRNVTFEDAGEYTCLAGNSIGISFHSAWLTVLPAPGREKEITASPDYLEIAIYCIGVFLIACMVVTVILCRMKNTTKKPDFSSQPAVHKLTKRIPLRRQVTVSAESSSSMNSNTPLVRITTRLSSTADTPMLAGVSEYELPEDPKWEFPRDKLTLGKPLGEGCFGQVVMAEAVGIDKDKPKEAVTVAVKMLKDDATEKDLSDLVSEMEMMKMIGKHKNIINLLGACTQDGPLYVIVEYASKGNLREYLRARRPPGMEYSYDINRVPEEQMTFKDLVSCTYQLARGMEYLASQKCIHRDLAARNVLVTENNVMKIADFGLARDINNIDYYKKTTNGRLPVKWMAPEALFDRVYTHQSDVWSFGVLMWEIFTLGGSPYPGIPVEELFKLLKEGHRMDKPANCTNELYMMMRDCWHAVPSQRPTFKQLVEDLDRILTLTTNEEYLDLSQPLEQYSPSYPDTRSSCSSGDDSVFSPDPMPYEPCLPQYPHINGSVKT
# [3] = molecular target: Polycomb protein SUZ12 (Homo sapiens) (UniProt Q15022); conditions: at 10 µM
# Polycomb protein SUZ12 (Homo sapiens), sequence (Q15022 whole entry): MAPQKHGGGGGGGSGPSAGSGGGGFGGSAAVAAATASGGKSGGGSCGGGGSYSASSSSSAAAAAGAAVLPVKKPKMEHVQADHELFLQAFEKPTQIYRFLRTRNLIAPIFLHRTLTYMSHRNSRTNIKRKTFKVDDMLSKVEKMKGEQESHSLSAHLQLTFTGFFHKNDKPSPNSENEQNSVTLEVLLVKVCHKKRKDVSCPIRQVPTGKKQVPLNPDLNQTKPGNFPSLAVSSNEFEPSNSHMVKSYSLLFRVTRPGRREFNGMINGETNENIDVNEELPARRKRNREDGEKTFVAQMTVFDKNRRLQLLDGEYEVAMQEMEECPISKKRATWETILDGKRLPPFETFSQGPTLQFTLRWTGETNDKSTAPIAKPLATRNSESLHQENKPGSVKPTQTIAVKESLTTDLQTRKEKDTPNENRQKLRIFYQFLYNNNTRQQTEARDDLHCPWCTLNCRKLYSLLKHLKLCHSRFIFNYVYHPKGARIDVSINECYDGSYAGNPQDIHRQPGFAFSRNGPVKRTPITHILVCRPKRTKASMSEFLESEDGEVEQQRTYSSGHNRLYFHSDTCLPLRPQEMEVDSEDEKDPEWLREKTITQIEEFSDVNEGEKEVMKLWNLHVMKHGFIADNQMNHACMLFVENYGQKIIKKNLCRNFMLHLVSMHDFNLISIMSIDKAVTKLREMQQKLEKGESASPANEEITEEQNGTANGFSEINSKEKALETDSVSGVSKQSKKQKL
# [4] = molecular target: 5'-AMP-activated protein kinase catalytic subunit alpha-1 (Homo sapiens, UniProt Q13131); test: Selectivity interaction (Kinase panel (KiNativ target engagement assay in Jurkat cells)) EUB0001635a PRKAA1; format: cell-based; conditions: Selectivity number of off-targets 0.0, Selectivity number of targets 233.0, Source Knowledge https://www.sciencedirect.com/science/article/pii/S2451945619300674?via%3Dihub, at 1 µM
# 5'-AMP-activated protein kinase catalytic subunit alpha-1, sequence (Q13131 whole entry, looked up): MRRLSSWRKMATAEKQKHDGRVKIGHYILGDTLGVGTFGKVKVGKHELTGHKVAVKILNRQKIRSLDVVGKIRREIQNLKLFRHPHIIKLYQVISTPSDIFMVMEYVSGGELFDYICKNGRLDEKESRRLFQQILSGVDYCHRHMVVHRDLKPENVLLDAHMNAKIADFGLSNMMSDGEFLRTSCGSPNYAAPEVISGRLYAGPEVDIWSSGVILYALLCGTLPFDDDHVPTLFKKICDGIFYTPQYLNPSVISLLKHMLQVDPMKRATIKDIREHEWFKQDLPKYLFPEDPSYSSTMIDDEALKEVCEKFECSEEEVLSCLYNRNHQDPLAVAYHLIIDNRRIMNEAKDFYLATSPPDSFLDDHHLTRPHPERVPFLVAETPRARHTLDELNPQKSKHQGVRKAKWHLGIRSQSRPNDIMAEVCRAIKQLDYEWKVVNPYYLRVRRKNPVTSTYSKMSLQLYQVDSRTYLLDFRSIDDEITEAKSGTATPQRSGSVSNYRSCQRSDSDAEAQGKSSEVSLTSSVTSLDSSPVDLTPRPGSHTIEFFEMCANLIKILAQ
# [5] = molecular target: T1, Cyclin-dependent kinase 11A (Homo sapiens) (UniProt Q9UQ88); test: Selectivity interaction (Kinase panel (KiNativ target engagement assay in Jurkat cells)) EUB0001635a CDK11A; format: cell-based; conditions: Selectivity number of off-targets 0.0, Selectivity number of targets 233.0, Source Knowledge https://www.sciencedirect.com/science/article/pii/S2451945619300674?via%3Dihub, at 1 µM
# T1 sequence (whole entry): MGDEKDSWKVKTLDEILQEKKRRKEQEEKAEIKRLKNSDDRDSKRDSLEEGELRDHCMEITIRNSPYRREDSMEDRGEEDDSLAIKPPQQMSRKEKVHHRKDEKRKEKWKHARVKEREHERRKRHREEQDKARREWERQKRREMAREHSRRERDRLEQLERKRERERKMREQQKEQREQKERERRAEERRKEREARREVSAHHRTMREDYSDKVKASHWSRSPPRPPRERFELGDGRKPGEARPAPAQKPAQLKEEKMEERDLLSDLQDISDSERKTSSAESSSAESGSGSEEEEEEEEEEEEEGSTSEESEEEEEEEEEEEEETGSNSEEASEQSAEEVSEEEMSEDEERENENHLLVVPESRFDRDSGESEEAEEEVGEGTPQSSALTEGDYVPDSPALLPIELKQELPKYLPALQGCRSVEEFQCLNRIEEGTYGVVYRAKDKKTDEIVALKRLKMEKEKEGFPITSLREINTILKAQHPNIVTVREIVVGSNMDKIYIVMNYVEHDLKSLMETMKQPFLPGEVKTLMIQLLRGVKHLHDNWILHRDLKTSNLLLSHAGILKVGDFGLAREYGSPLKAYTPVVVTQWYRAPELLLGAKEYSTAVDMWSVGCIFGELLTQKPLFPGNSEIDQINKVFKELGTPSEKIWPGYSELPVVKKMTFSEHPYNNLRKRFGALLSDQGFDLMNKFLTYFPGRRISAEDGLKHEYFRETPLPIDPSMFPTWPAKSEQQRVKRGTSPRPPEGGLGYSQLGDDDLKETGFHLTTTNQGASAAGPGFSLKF
# [6] = molecular target: T2, Calcium/calmodulin-dependent protein kinase type IV (Homo sapiens) (UniProt Q16566); test: Selectivity interaction (ActivX KiNativ screen (kinase selectivity in THP-1 cell lysates)) EUB0000639a CAMK4; format: subcellular; conditions: lysate
# T2 sequence (whole entry): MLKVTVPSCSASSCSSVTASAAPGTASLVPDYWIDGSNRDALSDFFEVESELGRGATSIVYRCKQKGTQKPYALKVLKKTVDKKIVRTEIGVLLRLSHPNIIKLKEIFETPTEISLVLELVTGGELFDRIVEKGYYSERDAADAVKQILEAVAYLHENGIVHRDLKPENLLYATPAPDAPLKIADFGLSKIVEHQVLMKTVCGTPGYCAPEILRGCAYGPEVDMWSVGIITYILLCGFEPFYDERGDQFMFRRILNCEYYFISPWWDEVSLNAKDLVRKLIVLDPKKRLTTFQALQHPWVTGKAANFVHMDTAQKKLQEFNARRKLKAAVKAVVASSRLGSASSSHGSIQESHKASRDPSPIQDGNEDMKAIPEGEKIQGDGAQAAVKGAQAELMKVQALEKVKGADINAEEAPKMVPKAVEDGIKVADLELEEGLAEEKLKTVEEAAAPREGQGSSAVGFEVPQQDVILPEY
# [7] = molecular target: Serine/threonine-protein kinase 24 (Homo sapiens) (UniProt Q9Y6E0); test: Selectivity interaction (KinomeScan (DiscoverX)) EUB0000045b STK24
# Serine/threonine-protein kinase 24 (Homo sapiens), sequence (Q9Y6E0 whole entry, looked up): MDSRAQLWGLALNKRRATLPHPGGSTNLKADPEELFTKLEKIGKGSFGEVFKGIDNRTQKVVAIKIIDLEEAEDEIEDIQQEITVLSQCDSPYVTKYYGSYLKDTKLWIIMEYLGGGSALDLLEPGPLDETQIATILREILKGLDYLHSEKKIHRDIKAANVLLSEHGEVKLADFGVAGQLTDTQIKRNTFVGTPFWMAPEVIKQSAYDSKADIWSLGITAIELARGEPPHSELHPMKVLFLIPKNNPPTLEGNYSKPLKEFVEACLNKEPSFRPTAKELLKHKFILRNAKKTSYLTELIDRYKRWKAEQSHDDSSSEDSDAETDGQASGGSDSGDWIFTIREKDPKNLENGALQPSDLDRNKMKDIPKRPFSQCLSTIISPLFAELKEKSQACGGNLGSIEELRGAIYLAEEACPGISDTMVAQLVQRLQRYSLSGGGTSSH
# [8] = molecular target: T3, Cyclin-dependent kinase-like 2 (Homo sapiens) (UniProt Q92772); conditions: at 10 µM
# T3 sequence (whole entry): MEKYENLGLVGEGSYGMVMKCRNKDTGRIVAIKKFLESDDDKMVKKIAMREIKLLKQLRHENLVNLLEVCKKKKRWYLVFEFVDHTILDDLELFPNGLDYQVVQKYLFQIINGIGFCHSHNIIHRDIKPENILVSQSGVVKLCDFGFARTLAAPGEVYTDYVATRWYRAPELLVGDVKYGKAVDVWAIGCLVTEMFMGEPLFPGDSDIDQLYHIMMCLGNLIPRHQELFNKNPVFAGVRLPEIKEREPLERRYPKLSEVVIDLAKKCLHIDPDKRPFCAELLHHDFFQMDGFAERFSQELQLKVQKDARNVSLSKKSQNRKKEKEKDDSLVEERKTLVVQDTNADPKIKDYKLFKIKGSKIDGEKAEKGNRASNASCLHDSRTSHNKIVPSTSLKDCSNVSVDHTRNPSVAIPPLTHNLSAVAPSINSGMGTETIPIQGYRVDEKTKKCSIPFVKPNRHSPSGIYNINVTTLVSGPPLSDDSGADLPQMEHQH
# Mitogen-activated protein kinase 10, sequence (P53779 whole entry): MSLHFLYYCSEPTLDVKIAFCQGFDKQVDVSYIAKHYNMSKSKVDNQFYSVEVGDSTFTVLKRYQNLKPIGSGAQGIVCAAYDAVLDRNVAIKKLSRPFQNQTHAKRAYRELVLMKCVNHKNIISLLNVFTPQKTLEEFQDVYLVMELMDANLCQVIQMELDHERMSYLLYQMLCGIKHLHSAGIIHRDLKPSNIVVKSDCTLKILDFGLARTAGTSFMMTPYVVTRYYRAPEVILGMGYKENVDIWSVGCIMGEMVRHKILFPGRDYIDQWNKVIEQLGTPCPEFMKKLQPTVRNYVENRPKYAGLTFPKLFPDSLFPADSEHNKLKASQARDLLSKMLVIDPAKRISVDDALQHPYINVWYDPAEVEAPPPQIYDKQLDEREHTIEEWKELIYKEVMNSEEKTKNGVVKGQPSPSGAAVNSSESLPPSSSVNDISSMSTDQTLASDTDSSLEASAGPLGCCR
smiles,measurement,setting,value
COc1cc(Nc2nc(C)cc(-c3cnn4nc(OC)ccc34)n2)cc(C(F)(F)F)c1,% of control,[1],77%
O=C(NOC[C@H](O)CO)c1ccc(F)c(F)c1Nc1ccc(I)cc1F,% of control,[2],100%
CNCCN1CCC(c2cc(CN(C)C(=O)c3cccc(Oc4ccccc4)c3)ccn2)CC1,% activity,[3],> 90%
C=CC(=O)Nc1ccc(C(=O)Nc2[nH]nc3c2CN(C(=O)N[C@H](CN(C)C)c2ccccc2)C3(C)C)cc1,% of engagement,[4],54.4%
same,% of engagement,[5],-15.7%
CC[C@@H]1[C@H](F)C(=O)N[C@@H]1COc1nccc2cc(C(N)=O)c(OC)cc12 [ZIMLOVISERTIB],% of inhibition,[6]; at 0.01 µM,25.8%
same,% of inhibition,[6]; at 0.04 µM,19.1%
same,% of inhibition,[6]; at 0.2 µM,-4.7%
same,% of inhibition,[6]; at 1 µM,11.2%
same,% of inhibition,[6]; at 5 µM,18.6%
C=CC(=O)Nc1cc(-n2c(=O)ccc3cnc4ccc(-c5ccc(NS(C)(=O)=O)cc5)cc4c32)ccc1C,% of control,[7]; at 1 µM,100%
same,% of control,[7]; at 10 µM,93%
Cc1cc([C@@H](C)Nc2ccccc2C(=O)O)c2nc(N3CCOCC3)cc(=O)n2c1 [AZD-6482],% of control,[8],91%
